In this assay the test system is HCV genotype 2 (GT2) and genotype 3 (GT3). In words: Phase II clinical study: proportion of patients HCV RNA negative by LOQ. It is filed as in vivo. As to conditions: monotherapy arm (600 mg BID 1 week, then 1000 mg QD), 25 IU/mL. On the procedure:
The efficacy of the therapy regimen may be monitored using standard protocols. Treatment may be followed by determinations of HCV in serum and measurement of serum ALT levels. For example, the patients may be assessed for the presence of HCV RNA in their plasma. HCV RNA (IU/mL) can be measured at regular intervals during the treatment, e.g., at Day 1 (pre-dose and 4, 8, and 12 hours post-dose) and pre-dose at Day 2, Day 3, Day 8, Day 15, Day 29, and at Week 12, Week 24, Week 36, Week 48, Week 72 (when applicable), and at follow up. In addition, the HCV strains in the patient can be sequenced and assessed for identification of mutations selecting for resistance.
As used herein, LOD means limit of detection (serum HCV RNA is less than 10 IU/mL) and LOQ means limit of quantification (serum HCV RNA is less than 25 IU/mL). HCV RNA levels can be measured using commercially available methods. […]

The results in this text go back to patent US20130225483A1, “New Treatments of Hepatitis C Virus Infection” (priority 2010, published 2013).

Turning to `C/C=C/C[C@@H](C)[C@@H](O)[C@H]1C(=O)N[C@@H](CC)C(=O)N(C)[C@H](C)C(=O)N(CC)[C@@H](C(C)C)C(=O)N[C@@H](C(C)C)C(=O)N(C)[C@@H](CC(C)C)C(=O)N[C@@H](C)C(=O)N[C@H](C)C(=O)N(C)[C@@H](CC(C)C)C(=O)N(C)[C@@H](CC(C)C)C(=O)N(C)[C@@H](C(C)C)C(=O)N1C` [alisporivir, Alisporivir], the “patients achieved HCV RNA negative results (fraction in words)” value is “one third”.
